How the values were obtained:
PKC gamma (PKCg) = PKC gamma (PKCg) (Homo sapiens, UniProt P05129); experiment: In vitro kinase assay, PKC gamma; type: biochemical; details: 10 μM ATP
Description: Supplementary Table 4. In vitro kinase assay showing the IC 50 concentration of ENDX and
of the 12 PKC family members.
(1 picture or pasted object on this page, not shown here)

[1] = test system: AKT^Ser473 phosphorylation in T47D-LTED cells; experiment: Immunoblot of pAKT^Ser473, T47D-LTED; type: cell-based, human; details: CSS medium, 24 h; 5 µM
Experimental: Protein lysates were prepared using the RIPA lysis buffer system (ChemCruz #sc-24948) and quantified using the DC^TM Protein Assay reagents (Bio-Rad #5000112). Equal amounts of protein lysates were separated on 10% Criterion gels (Bio-Rad #3450112), transferred to PVDF membranes (Bio-Rad #1620177), blocked in TBST-5% milk and probed with primary antibodies listed in Supplementary Table 5, at the indicated dilutions. Membranes were incubated with HRP-conjugated anti-rabbit (CST #7074) or anti-mouse (CST #7076) secondary antibodies and visualized using chemiluminescent West Pico (Thermo Scientific #34580) or West Femto (Thermo Scientific #34096) reagents and a Li-Cor Odyssey® XF imager. Protein lysates from the MCF7AC1 xenograft model were obtained from a previous study. Quantitation of the protein bands signal intensity was performed using the NIH ImageJ image analysis software (https://imagej.nih.gov/ij///index.html). For the quantitation of the phospho protein levels, we first normalized total protein levels to β-actin loading control and used these values to normalize the phospho protein levels and compared change in protein expression levels relative to vehicle control normalized to 1.0. For the quantitation of total protein levels, we normalized the total protein levels to β-actin and compared change in expression levels relative to vehicle control normalized to 1.0. […]

MDAMB231 cells = experiment: Crystal violet growth assay, MDAMB231; type: cell-based, human; details: 0–10 µM tested, day seven
Description: Supplementary Figure 8. […]
ANOVA. b, Effects of ENDX on cell proliferation at the indicated concentrations on day seven of
treatment. […]

MCF7AC1 cells = experiment: IncuCyte Annexin V apoptosis assay, MCF7AC1; type: cell-based, human; details: CSS medium, 48 h
Experimental: (§1) MCF7AC1 and T47D-LTED cells were plated at a density of 2000 cells per well in CSS medium for 24 h. Cells were then co-treated for 48 h with vehicle or drug, IncuCyte Annexin V green reagent (#4642, 1:300), an early-stage apoptosis marker, and IncuCyte NucLight rapid red reagent (#4717, 1:500), a dye that stains all cell nuclei red, in CSS medium. MCF7AC1^caAKT cells were plated at a cell density of 2000 cells per well in CSS medium in the absence or presence of cumate for 48 h and then co-treated with vehicle or drug, Annexin V green and NucLight rapid red reagents in the absence or presence of cumate for an additional 48 h in CSS medium.

MCF7AC1^caAKT cells = experiment: IncuCyte Annexin V apoptosis assay, MCF7AC1^caAKT; type: cell-based, human; details: CSS medium, 5 µM, 48 h
Experimental: as §1
Molecular cloning was performed for the generation of catalytically active AKT-expressing MCF7AC1 cells. For this purpose, vector pCDNA3.1+ containing an N-terminal SRCMyr signal AKT ORF and C-terminal hemagglutinin (HA)-tag was provided as a kind gift from Dr. Haojie Huang, Ph.D, Mayo Clinic, Rochester, MN. The constitutively active AKT (caAKT)-HA insert was excised using NheI/EcoRV restriction digest, gel purified and cloned into the NheI//PmeI site of an SBI (System biosciences, Palo Alto, CA) vector with modified restriction sites. Sanger sequencing was performed by Azenta/Genewiz, (South Plainfield, NJ) to confirm in frame sequence. […]

CC/C(=C(\c1ccc(O)cc1)c1ccc(OCCNC)cc1)c1ccccc1 [ENDX, Z-endoxifen]
IC50 (PKC gamma (PKCg)): 49.7 µM
Effect on AKT^Ser473 phosphorylation [1]: attenuated AKT^Ser473 phosphorylation
Concentrations at which growth was inhibited (MDAMB231 cells): ≥ 7.5 µM
Concentrations that induced apoptosis (MCF7AC1 cells; 0 to 10 µM tested): ≥ 2.5 µM
Effect on apoptosis (MCF7AC1 cells; ENDX 5 µM, TAM 0.1 µM, ICI 0.1 µM): induced apoptosis
Effect on apoptosis (MCF7AC1^caAKT cells; absence of cumate): induced apoptosis
Effect of caAKT expression on ENDX-induced apoptosis (MCF7AC1^caAKT cells; presence of cumate): significantly diminished the ability of ENDX to induce apoptosis

From publication PMC10730845, “Endoxifen downregulates AKT phosphorylation through protein kinase C beta 1 inhibition in ERα+ breast cancer” (NPJ Breast Cancer, 2023)
